# Results reported in EP4722212A1, “NOVEL COMPOUND FOR INHIBITING PROTEIN KINASES AND PHARMACEUTICAL COMPOSITION COMPRISING SAME” (Magicbullettherapeutics Co., Ltd., priority 2023, dated 2024).
# Like-named read-outs stand apart in the source and are kept apart here.
# Experiments:
# Experiment in all cases: Kinase panel
# Format in all cases: biochemical
# C-KIT = C-KIT (Homo sapiens, UniProt P10721); conditions: read-out: residual enzyme activity
# Procedure: (§1) To measure the inhibitory activity of protein kinases against the compounds of the present invention, a biochemical assay was performed using a full kinase panel. The inhibitory efficacy of kinases was measured when Example compounds 8 and 51 were treated at a single concentration of 1 µM, and residual enzyme activity values were calculated. Kinases were identified when the calculated residual enzyme activity values were 40% or less, i.e., inhibited by 60% or more.
# CAMKK2 = CAMKK2 (Homo sapiens, UniProt Q96RR4); conditions: CAMKK2, 1 µM; read-out: residual enzyme activity
# Procedure: as §1
# CDK17/CYCLIN Y (PCTK2) = CDK17/CYCLIN Y (PCTK2) (Homo sapiens, UniProt Q00537); conditions: read-out: residual enzyme activity
# Procedure: as §1
# CDK5/P35 = CDK5/P35 (Homo sapiens, UniProt Q00535); conditions: read-out: residual enzyme activity
# Procedure: as §1
# CDK9/CYCLIN T2 = CDK9/CYCLIN T2 (Homo sapiens, UniProt P50750); conditions: CDK9/cyclin T2, 1 µM; read-out: residual enzyme activity
# Procedure: as §1
# CK1A1 = CK1A1 (Homo sapiens, UniProt P48729); conditions: read-out: residual enzyme activity
# Procedure: as §1
# CKIG3 = CKIG3 (Homo sapiens, UniProt Q9Y6M4); conditions: CKIG3, 1 µM; read-out: residual enzyme activity
# Procedure: as §1
# ERK2/MAPK1 = ERK2/MAPK1 (Homo sapiens, UniProt P28482); conditions: ERK2/MAPK1, 1 µM; read-out: residual enzyme activity
# Procedure: as §1
# FGR = FGR (Homo sapiens, UniProt P09769); conditions: read-out: residual enzyme activity
# Procedure: as §1
# FLT4/VEGFR3 = FLT4/VEGFR3 (Homo sapiens, UniProt P35916); conditions: FLT4/VEGFR3, 1 µM; read-out: residual enzyme activity
# Procedure: as §1
# GRK2 = GRK2 (Homo sapiens, UniProt P25098); conditions: GRK2, 1 µM; read-out: residual enzyme activity
# Procedure: as §1
# GSK3A = GSK3A (Homo sapiens, UniProt P49840); conditions: read-out: residual enzyme activity
# Procedure: as §1
# GSK3B = GSK3B (Homo sapiens, UniProt P49841); conditions: read-out: residual enzyme activity
# Procedure: as §1
# IGFIR = IGFIR (Homo sapiens, UniProt P08069); conditions: read-out: residual enzyme activity
# Procedure: as §1
# JNK1 = JNK1 (Homo sapiens, UniProt P45983); conditions: JNK1, 1 µM; read-out: residual enzyme activity
# Procedure: as §1
# KSR2 = KSR2 (Homo sapiens, UniProt Q6VAB6); conditions: KSR2, 1 µM; read-out: residual enzyme activity
# Procedure: as §1
# LATS1 = LATS1 (Homo sapiens, UniProt O95835); conditions: LATS1, 1 µM; read-out: residual enzyme activity
# Procedure: as §1
# LRRK2 = LRRK2 (Homo sapiens, UniProt Q5S007); conditions: LRRK2, 1 µM; read-out: residual enzyme activity
# Procedure: as §1
# MYLK4 = MYLK4 (Homo sapiens, UniProt Q86YV6); conditions: MYLK4, 1 µM; read-out: residual enzyme activity
# Procedure: as §1
# NEK11 = NEK11 (Homo sapiens, UniProt Q8NG66); conditions: NEK11, 1 µM; read-out: residual enzyme activity
# Procedure: as §1
# NEK7 = NEK7 (Homo sapiens, UniProt Q8TDX7); conditions: NEK7, 1 µM; read-out: residual enzyme activity
# Procedure: as §1
# P38A/MAPK14 = P38A/MAPK14 (Homo sapiens, UniProt Q16539); conditions: read-out: residual enzyme activity
# Procedure: as §1
# PAK2 = PAK2 (Homo sapiens, UniProt Q13177); conditions: PAK2, 1 µM; read-out: residual enzyme activity
# Procedure: as §1
# PAK5 = PAK5 (Homo sapiens, UniProt Q9P286); conditions: PAK5, 1 µM; read-out: residual enzyme activity
# Procedure: as §1
# PASK = PASK (Homo sapiens, UniProt Q96RG2); conditions: read-out: residual enzyme activity
# Procedure: as §1
# PKCIOTA = PKCIOTA (Homo sapiens, UniProt P41743); conditions: read-out: residual enzyme activity
# Procedure: as §1
# PKCTHETA = PKCTHETA (Homo sapiens, UniProt Q04759); conditions: read-out: residual enzyme activity
# Procedure: as §1
# PKD2/PRKD2 = PKD2/PRKD2 (Homo sapiens, UniProt Q9BZL6); conditions: PKD2/PRKD2, 1 µM; read-out: residual enzyme activity
# Procedure: as §1
# STK39/STLK3 = STK39/STLK3 (Homo sapiens, UniProt Q9UEW8); conditions: STK39/STLK3, 1 µM; read-out: residual enzyme activity
# Procedure: as §1
# TTBK2 = TTBK2 (Homo sapiens, UniProt Q6IQ55); conditions: TTBK2, 1 µM; read-out: residual enzyme activity
# Procedure: as §1
# TYRO3/SKY = TYRO3/SKY (Homo sapiens, UniProt Q06418); conditions: read-out: residual enzyme activity
# Procedure: as §1
# ULK2 = ULK2 (Homo sapiens, UniProt Q8IYT8); conditions: ULK2, 1 µM; read-out: residual enzyme activity
# Procedure: as §1
# YES/YES1 = YES/YES1 (Homo sapiens, UniProt P07947); conditions: YES/YES1, 1 µM; read-out: residual enzyme activity
# Procedure: as §1
# Sequence of FGR (P09769 whole entry, species assumed): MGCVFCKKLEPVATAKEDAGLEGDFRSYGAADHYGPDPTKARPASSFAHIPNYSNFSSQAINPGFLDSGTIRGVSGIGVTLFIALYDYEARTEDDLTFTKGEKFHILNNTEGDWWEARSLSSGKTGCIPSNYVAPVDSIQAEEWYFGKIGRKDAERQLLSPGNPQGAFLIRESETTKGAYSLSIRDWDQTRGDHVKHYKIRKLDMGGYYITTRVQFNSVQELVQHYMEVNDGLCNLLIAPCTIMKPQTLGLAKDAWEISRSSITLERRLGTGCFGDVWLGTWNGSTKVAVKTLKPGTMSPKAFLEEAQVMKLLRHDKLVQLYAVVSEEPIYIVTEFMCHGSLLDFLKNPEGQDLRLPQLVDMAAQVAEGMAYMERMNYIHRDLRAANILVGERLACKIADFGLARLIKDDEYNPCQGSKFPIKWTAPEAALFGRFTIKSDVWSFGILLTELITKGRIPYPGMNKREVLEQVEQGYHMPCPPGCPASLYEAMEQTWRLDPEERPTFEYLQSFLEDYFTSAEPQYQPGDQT
# Sequence of PAK5 (Q9P286 whole entry): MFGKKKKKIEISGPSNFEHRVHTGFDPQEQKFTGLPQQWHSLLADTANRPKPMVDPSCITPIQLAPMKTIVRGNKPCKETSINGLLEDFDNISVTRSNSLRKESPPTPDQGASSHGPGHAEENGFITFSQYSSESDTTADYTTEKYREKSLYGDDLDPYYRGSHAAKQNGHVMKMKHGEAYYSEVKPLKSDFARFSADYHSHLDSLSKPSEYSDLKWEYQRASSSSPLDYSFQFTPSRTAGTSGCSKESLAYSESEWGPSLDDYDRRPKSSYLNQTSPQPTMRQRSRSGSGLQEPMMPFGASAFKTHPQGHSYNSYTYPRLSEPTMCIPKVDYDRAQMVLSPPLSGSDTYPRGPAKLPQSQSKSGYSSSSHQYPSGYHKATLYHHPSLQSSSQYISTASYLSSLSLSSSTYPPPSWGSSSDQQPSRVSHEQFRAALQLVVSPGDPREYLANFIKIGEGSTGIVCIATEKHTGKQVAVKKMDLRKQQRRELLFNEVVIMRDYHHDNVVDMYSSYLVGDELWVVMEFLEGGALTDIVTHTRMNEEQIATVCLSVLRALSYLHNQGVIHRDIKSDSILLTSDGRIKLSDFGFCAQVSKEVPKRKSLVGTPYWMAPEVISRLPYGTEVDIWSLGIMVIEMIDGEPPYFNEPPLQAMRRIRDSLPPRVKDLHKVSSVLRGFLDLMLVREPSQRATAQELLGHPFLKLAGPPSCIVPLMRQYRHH
# Sequence of C-KIT (P10721 26-976): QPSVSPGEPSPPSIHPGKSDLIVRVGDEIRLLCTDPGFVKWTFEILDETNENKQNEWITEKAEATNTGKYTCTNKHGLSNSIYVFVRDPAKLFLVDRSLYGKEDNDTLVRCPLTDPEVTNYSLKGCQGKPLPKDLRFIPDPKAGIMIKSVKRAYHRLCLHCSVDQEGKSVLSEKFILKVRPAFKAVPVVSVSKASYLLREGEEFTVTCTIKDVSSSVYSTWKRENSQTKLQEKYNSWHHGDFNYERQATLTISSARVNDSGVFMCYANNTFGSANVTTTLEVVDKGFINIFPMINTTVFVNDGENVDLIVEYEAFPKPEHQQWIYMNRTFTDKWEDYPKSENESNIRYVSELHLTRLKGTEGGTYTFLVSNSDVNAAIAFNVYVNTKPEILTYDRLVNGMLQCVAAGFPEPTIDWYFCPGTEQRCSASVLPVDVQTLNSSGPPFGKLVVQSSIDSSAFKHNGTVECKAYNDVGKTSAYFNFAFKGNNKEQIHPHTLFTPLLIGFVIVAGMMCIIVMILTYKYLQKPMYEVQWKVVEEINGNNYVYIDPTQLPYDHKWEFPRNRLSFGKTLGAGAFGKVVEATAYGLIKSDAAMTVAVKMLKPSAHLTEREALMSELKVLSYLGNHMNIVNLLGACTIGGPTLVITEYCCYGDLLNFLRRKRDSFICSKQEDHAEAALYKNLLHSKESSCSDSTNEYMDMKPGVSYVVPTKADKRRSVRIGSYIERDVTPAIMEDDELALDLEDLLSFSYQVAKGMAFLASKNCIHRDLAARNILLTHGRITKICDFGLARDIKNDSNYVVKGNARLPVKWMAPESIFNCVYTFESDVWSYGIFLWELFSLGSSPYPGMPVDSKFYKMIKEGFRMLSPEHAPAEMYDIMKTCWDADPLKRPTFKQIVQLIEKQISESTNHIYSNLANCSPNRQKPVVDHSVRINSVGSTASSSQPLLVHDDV
# Sequence of ERK2/MAPK1 (P28482 whole entry): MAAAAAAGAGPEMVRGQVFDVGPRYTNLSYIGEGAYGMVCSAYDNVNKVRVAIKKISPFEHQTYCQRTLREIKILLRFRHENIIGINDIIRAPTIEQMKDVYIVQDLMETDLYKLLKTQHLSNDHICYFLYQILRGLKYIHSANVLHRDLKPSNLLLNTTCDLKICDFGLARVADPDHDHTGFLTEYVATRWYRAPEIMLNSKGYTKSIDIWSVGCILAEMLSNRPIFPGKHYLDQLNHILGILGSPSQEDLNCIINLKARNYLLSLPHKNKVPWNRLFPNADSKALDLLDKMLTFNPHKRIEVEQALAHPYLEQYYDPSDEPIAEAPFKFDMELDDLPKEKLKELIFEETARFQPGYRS
# Sequence of CDK5/P35 (Q00535 whole entry, species assumed): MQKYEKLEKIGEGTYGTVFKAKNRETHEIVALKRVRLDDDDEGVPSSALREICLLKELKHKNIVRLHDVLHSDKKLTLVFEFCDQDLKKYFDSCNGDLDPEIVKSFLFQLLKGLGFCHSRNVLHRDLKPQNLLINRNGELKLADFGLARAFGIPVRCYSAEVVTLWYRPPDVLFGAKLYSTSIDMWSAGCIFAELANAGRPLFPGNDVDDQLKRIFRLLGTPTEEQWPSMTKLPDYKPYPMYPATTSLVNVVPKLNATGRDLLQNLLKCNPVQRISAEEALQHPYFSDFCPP
# Sequence of CDK5/P35 (Q15078 2-307 partner limits assumed, species assumed): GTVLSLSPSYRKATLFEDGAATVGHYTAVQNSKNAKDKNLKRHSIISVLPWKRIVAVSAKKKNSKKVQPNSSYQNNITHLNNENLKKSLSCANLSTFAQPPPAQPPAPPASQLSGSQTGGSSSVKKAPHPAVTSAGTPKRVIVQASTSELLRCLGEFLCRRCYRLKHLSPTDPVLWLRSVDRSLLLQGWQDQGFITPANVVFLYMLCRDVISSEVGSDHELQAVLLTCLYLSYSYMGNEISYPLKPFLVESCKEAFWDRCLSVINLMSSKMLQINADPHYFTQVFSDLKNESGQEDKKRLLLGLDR
# Sequence of JNK1 (P45983 whole entry, species assumed): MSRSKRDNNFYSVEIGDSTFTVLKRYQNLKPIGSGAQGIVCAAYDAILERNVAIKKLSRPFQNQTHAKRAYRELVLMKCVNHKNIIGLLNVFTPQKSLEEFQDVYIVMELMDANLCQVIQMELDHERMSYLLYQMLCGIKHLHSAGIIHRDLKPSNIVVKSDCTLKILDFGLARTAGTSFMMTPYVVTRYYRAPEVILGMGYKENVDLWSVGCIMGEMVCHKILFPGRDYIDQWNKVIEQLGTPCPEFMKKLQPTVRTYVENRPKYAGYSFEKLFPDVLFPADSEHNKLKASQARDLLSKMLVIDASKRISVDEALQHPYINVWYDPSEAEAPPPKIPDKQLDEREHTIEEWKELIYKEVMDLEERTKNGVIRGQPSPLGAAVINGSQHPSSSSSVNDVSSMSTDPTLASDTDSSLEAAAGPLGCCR
# Sequence of NEK7 (Q8TDX7 whole entry, species assumed): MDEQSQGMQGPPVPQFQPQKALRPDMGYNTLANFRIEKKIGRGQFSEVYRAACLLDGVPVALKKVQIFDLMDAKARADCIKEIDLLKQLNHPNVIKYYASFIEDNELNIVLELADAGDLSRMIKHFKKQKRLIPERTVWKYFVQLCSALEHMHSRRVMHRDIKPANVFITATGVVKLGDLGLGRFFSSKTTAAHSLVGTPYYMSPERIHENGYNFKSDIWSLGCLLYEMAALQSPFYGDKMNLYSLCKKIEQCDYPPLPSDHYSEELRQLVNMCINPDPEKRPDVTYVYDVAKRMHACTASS
# Sequence of PKD2/PRKD2 (Q9BZL6 whole entry): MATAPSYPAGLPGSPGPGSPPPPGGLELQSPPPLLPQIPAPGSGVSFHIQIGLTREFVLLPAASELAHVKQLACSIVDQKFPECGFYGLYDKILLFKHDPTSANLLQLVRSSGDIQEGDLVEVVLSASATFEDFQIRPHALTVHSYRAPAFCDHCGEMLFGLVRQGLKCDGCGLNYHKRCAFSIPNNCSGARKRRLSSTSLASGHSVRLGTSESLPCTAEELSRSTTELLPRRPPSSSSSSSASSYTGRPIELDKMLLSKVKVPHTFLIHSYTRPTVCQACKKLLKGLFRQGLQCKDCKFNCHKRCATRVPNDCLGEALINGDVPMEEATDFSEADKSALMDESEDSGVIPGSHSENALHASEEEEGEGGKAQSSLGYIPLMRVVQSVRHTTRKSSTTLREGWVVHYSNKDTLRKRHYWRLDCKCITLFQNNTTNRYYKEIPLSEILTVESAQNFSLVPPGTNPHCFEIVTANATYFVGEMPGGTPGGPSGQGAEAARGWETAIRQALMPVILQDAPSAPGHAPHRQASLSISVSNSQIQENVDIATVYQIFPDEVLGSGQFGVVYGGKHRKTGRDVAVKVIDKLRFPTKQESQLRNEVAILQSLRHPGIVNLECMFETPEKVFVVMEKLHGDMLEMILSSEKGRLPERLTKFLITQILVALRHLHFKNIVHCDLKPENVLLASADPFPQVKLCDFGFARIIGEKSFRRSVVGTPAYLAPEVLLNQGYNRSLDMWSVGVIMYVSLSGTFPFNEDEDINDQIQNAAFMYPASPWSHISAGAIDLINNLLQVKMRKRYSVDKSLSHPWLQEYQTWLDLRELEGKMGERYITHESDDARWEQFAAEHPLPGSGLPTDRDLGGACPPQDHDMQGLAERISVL
SMILES,remaining activity at 1 µM (CAMKK2) [%],remaining activity at 1 µM (CDK17/CYCLIN Y (PCTK2)) [%],remaining activity at 1 µM (CDK9/CYCLIN T2) [%],remaining activity at 1 µM (CKIG3) [%],remaining activity at 1 µM (ERK2/MAPK1) [%],remaining activity at 1 µM (FGR) [%],remaining activity at 1 µM (FLT4/VEGFR3) [%],remaining activity at 1 µM (GRK2) [%],remaining activity at 1 µM (IGFIR) [%],remaining activity at 1 µM (JNK1) [%],remaining activity at 1 µM (KSR2) [%],remaining activity at 1 µM (LATS1) [%],remaining activity at 1 µM (LRRK2) [%],remaining activity at 1 µM (MYLK4) [%],remaining activity at 1 µM (NEK11) [%],remaining activity at 1 µM (NEK7) [%],remaining activity at 1 µM (PAK2) [%],remaining activity at 1 µM (PAK5) [%],remaining activity at 1 µM (PASK) [%],remaining activity at 1 µM (PKCIOTA) [%],also measured
"Cc1cn(-c2cc(C(=O)Nc3ccc(C)c(N4Cc5cnc(NC6CC6)nc5C5(CC5)C4=O)c3)cc(C(F)(F)F)c2)cn1 [Compound 8, N-(3-(2'-(cyclopropylamino)-7'-oxo-5'H-spiro[cyclopropane-1,8'-pyrido[4,3-d]pyrimidine]-6'(7'H)-yl)-4-methylphenyl)-3-(4-methyl-1H-imidazol-1-yl)-5-(trifluoromethyl)benzamide]",> 40,> 40,> 40,> 40,> 40,≤ 40,≤ 40,> 40,> 40,> 40,> 40,> 40,> 40,> 40,> 40,> 40,> 40,> 40,> 40,> 40,"remaining activity at 1 µM (C-KIT; C-KIT): ≤ 40%; remaining activity at 1 µM (CDK5/P35; CDK5/P35, 1 µM): > 40%; remaining activity at 1 µM (CK1A1; CK1A1, 1 µM): > 40%; remaining activity at 1 µM (GSK3A; GSK3A): > 40%; remaining activity at 1 µM (GSK3B; GSK3B): > 40%; remaining activity at 1 µM (P38A/MAPK14; P38A/MAPK14, 1 µM): ≤ 40%; remaining activity at 1 µM (PKCTHETA): > 40%; remaining activity at 1 µM (PKD2/PRKD2): > 40%; remaining activity at 1 µM (STK39/STLK3): > 40%; remaining activity at 1 µM (TTBK2): > 40%; remaining activity at 1 µM (TYRO3/SKY): > 40%; remaining activity at 1 µM (ULK2): > 40%; remaining activity at 1 µM (YES/YES1): ≤ 40%"
"Cc1ccc(Nc2ncc3c(n2)C2(CC2)C(=O)N(c2cc(NC(=O)c4cccc(C(F)(F)F)c4)ccc2C)C3)cn1 [Compound 51, N-(4-methyl-3-(2'-((6-methylpyridin-3-yl)amino)-7'-oxo-5'H-spiro[cyclopropane-1,8'-pyrido[4,3-d]pyrimidine]-6'(7'H)-yl)phenyl)-3-(trifluoromethyl)benzamide]",> 40,> 40,> 40,> 40,> 40,≤ 40,≤ 40,> 40,> 40,≤ 40,> 40,> 40,≤ 40,> 40,≤ 40,> 40,> 40,> 40,> 40,> 40,"remaining activity at 1 µM (C-KIT; c-Kit): ≤ 40%; remaining activity at 1 µM (CDK5/P35; CDK5/p35, 1 µM): > 40%; remaining activity at 1 µM (CK1A1; CKlal, 1 µM): > 40%; remaining activity at 1 µM (GSK3A; GSK3a): > 40%; remaining activity at 1 µM (GSK3B; GSK3b): > 40%; remaining activity at 1 µM (P38A/MAPK14; P38a/MAPK14, 1 µM): ≤ 40%; remaining activity at 1 µM (PKCTHETA): > 40%; remaining activity at 1 µM (PKD2/PRKD2): > 40%; remaining activity at 1 µM (STK39/STLK3): > 40%; remaining activity at 1 µM (TTBK2): > 40%; remaining activity at 1 µM (TYRO3/SKY): ≤ 40%; remaining activity at 1 µM (ULK2): > 40%; remaining activity at 1 µM (YES/YES1): ≤ 40%"
